Source: patent publication US9546358B2, “Compositions and methods for reducing background DNA amplification” (New England Biolabs, Inc., priority 2012, dated 2017)

Experiments:
[1] = tested on: non-template amplification; assay: LAMP assay, suppression of non-template (background) amplification, real-time SYTO-9 fluorescence; format: biochemical; conditions: for Minimum effective concentration of individual additive (Compound B) required for suppression of non-template amplification / Minimum effective concentration of individual additive (Compound A) required for suppression of non-template amplification: single additive, 100% suppression; for effect on non-template amplification: lower temperature
Method: (§1) • 0.4-8 ng/μl DNA polymerase (Bst 2.0-Sso7d) in LAMP Buffer [20 mM Tris, 125 mM KCl, 10 mM (NH4)2SO4, 8 mM MgSO4, 1.4 mM dNTPs, 0.1% Tween-20® (Sigma-Aldrich, St. Louis, Mo.), pH 8.8 25° C.] • 1.6 μM Forward internal primer (FIP)/Back internal primer (BIP), 0.2 μM F3/B3, 0.4 μM LoopF/LoopB • 5 ng λ DNA or none (non-template control) per reaction (25 μl)
(§2) The additive solution was added to the amplification mixture to provide a final concentration in the range of 0-40% v/v where the stock solution of additive was solubilized in water. For example, concentrations of isobutyramide in the range of 0.005 M-1.5 M, 0.01 M-1.2 M, or 0.01 M-0.7 M and N-methylformamide in the range of 0.01-2 M, 0.02 M-1.5 M, or 0.02 M-1 M (combined for example, at ratios of 10:1, 8:1, 6:1, 4:1, 2:1, 1.8:1, 1.6:1, 1.4:1, 1.2:1, 1:1 of N-methylformamide:isobutyramide) were tested at various temperatures. Other examples included in the final reaction mixture 0.02 M-1.3 M propionamide, 0.2 M-2 M Urea, 0.1 M-3.8 M formamide, 0.05 M-2 M acetamide, 0.02 M-0.5 M valeramide, 0.01 M-2 M N,N-dimethylformamide, 0.01 M-2 M N,N-diethylformamide, 0.01 M-1.8 M N,N-dimethylbutyramide.
(§3) The extent of amplification of lambda DNA (unless otherwise specified) with a LAMP amplicon size of 100-200 bases was measured by real-time fluorescence using 2 μM SYTO-9® (Life Technologies, Carlsbad, Calif.) double strand DNA intercalating dye (Nagamine, et al., Molecular and Cellular Probes, 16:223-229 (2002)) using the following primers: […]
The reduction in background fluorescence from non-template amplification was quantitatively assessed. The total reaction time for LAMP is 90 minutes. In the absence of additives, a positive signal for an amplification product of a template could be detected at about 3 minutes-15 minutes at temperatures 55° C.-72° C. and for a non-template signal at 8 minutes-30 minutes at temperatures below about 71° C. When a mixture of additives was included in the amplification mixture, a positive signal for template amplification is still seen at 3 minutes-15 minutes but no signal is seen even after 85 minutes for non-template reactions. This is recorded however as the maximum time to illustrate the synergistic effect. […] In all cases, the effect of the ratio of components of the mixture at specific molar concentrations is greater than the effect of each component small molecule individually tested at the same molar concentration and temperature (exemplified by data in Table 2).
The synergistic effect of mixing a carboxamide and N-alkylcarboxamide was examined.

lambda DNA = assay: LAMP assay, target (template) amplification, real-time SYTO-9 fluorescence; format: biochemical, lambda phage
Method: as §1, §2, §3
The reduction in background fluorescence from non-template amplification was quantitatively assessed. The total reaction time for LAMP is 90 minutes. In the absence of additives, a positive signal for an amplification product of a template could be detected at about 3 minutes-15 minutes at temperatures 55° C.-72° C. and for a non-template signal at 8 minutes-30 minutes at temperatures below about 71° C. […] This is recorded however as the maximum time to illustrate the synergistic effect. […]

[2] = isobutyramide increased above 0.4 M
[3] = N-methylformamide increased above 1.0 M

SMILES: CCN(C=O)CC [DEF, N,N-diethylformamide]
- Minimum effective concentration of individual additive (Compound B) required for suppression of non-template amplification ([1]; 65 °C): 0.26 M

SMILES: CCCC(=O)N(C)C [DMB, N,N-dimethylbutyramide]
- Minimum effective concentration of individual additive (Compound A) required for suppression of non-template amplification ([1]; 65 °C): 0.24 M

SMILES: CN(C)C=O [DMF, N,N-dimethylformamide]
- Minimum effective concentration of individual additive (Compound B) required for suppression of non-template amplification ([1]; 65 °C): 0.77 M

SMILES: NC=O [FA, formamide]
- Minimum effective concentration of individual additive (Compound A) required for suppression of non-template amplification ([1]; 65 °C): 1.8 M

SMILES: CC(C)C(N)=O [IBA, isobutyramide]
- suppression of non-template amplification ([1]; 0.4 M isobutyramide alone, 60 °C): ~1%
- suppression of non-template amplification ([1]; 0.4 M isobutyramide alone, 65 °C): ~10%
- effect on non-template amplification [1, 2]: did not affect the non-template amplification at lower temperature
- Minimum effective concentration of individual additive (Compound A) required for suppression of non-template amplification ([1]; 65 °C): 0.41 M
- effect on target amplification (lambda DNA; [2]): further inhibit the target amplification

SMILES: CNC=O [NMF, N-methylformamide]
- suppression of non-template amplification ([1]; 1.1 M N-methylformamide alone, 60 °C): ~1%
- suppression of non-template amplification ([1]; 1.1 M N-methylformamide alone, 65 °C): ~10%
- effect on non-template amplification [1, 3]: did not affect the non-template amplification at lower temperature
- effect of increasing amounts of single additive on non-template amplification (time to threshold) ([1]; increasing amounts of 3.2 M N-methylformamide, FIG. 6A): no beneficial effect observed
- Minimum effective concentration of individual additive (Compound B) required for suppression of non-template amplification ([1]; 65 °C): 1.1 M
- effect on target amplification (lambda DNA; 1.1 M N-methylformamide, single additive, FIG. 2B): inhibited target amplification above 68 °C
- effect on target amplification (lambda DNA; [3]): further inhibit the target amplification

SMILES: CCC(N)=O [PIA, propionamide]
- effect of increasing amounts of single additive on non-template amplification (time to threshold) ([1]; increasing amounts of 1.7 M propionamide, FIG. 6B): no beneficial effect observed
- Minimum effective concentration of individual additive (Compound A) required for suppression of non-template amplification ([1]; 65 °C): 0.80 M

SMILES: CCCCC(N)=O [VA, valeramide]
- Minimum effective concentration of individual additive (Compound A) required for suppression of non-template amplification ([1]; 65 °C): 0.20 M
